Test results published in PubChem BioAssay (NCI).
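Grown in 96-well plates, cells were treated for 48 hours with each compound at five concentrations. Insufficient inhibition: endpoint recorded as highest concentration tested. Definition used: TGI = concentration required for complete inhibition of growth.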

Tests used:
Test in all cases: NCI anticancer screen, dose series, 48 h
LOX IMVI melanoma = tested on: LOX IMVI melanoma
COLO 205 colon = tested on: COLO 205 colon
NCI-H226 lung = tested on: NCI-H226 lung
SF-295 CNS = tested on: SF-295 CNS
HCT-15 colon = tested on: HCT-15 colon
EKVX NSCLC = tested on: EKVX NSCLC
DLD-1 colon = tested on: DLD-1 colon
MOLT-4 leukemia = tested on: MOLT-4 leukemia
HT29 colon = tested on: HT29 colon
SF-268 CNS = tested on: SF-268 CNS
SNB-19 CNS = tested on: SNB-19 CNS
SW-620 colon = tested on: SW-620 colon
OVCAR-3 ovarian = tested on: OVCAR-3 ovarian
786-0 renal = tested on: 786-0 renal
CCRF-CEM leukemia = tested on: CCRF-CEM leukemia
UACC-62 melanoma = tested on: UACC-62 melanoma
LXFL 529 NSCLC = tested on: LXFL 529 NSCLC
SNB-75 CNS = tested on: SNB-75 CNS
SR leukemia = tested on: SR leukemia
UACC-257 melanoma = tested on: UACC-257 melanoma
SK-MEL-5 melanoma = tested on: SK-MEL-5 melanoma
RXF-631 renal = tested on: RXF-631 renal
ACHN renal = tested on: ACHN renal
DMS 273 small cell lung = tested on: DMS 273 small cell lung
SNB-78 CNS = tested on: SNB-78 CNS
HCT-116 colon = tested on: HCT-116 colon
HL-60(TB) leukemia = tested on: HL-60(TB) leukemia
NCI-H522 lung = tested on: NCI-H522 lung
A549 NSCLC = tested on: A549 NSCLC
OVCAR-5 ovarian = tested on: OVCAR-5 ovarian
OVCAR-4 ovarian = tested on: OVCAR-4 ovarian
CAKI-1 renal = tested on: CAKI-1 renal
MALME-3M melanoma = tested on: MALME-3M melanoma
TK-10 renal = tested on: TK-10 renal
M14 melanoma = tested on: M14 melanoma
SK-MEL-28 melanoma = tested on: SK-MEL-28 melanoma
RPMI-8226 leukemia = tested on: RPMI-8226 leukemia
HOP-92 NSCLC = tested on: HOP-92 NSCLC
UO-31 renal = tested on: UO-31 renal
SF-539 CNS = tested on: SF-539 CNS
HOP-62 NSCLC = tested on: HOP-62 NSCLC
A498 renal = tested on: A498 renal
HCC-2998 colon = tested on: HCC-2998 colon
KM20L2 colon = tested on: KM20L2 colon
RXF 393 renal = tested on: RXF 393 renal
SN12C renal = tested on: SN12C renal
OVCAR-8 ovarian = tested on: OVCAR-8 ovarian
HOP-18 NSCLC = tested on: HOP-18 NSCLC
NCI-H460 lung = tested on: NCI-H460 lung
M19-MEL melanoma = tested on: M19-MEL melanoma
IGROV1 ovarian = tested on: IGROV1 ovarian
SK-OV-3 ovarian = tested on: SK-OV-3 ovarian
KM12 colon = tested on: KM12 colon
U251 CNS = tested on: U251 CNS
SK-MEL-2 melanoma = tested on: SK-MEL-2 melanoma
NCI-H23 lung = tested on: NCI-H23 lung
K-562 leukemia = tested on: K-562 leukemia
DMS 114 small cell lung = tested on: DMS 114 small cell lung

Measured: TGI

Cc1cc(C(C)C)cc(O)c(=O)c1
not listed: SK-MEL-2 melanoma | NCI-H23 lung | K-562 leukemia | DMS 114 small cell lung
> 100 µM: all other assays above

COc1nc(NC2OCC(OC(C)=O)C(OC(C)=O)C2OC(C)=O)c(-c2csc(N)n2)c(=O)n1C (stereo not drawn)
not listed: EKVX NSCLC | DMS 273 small cell lung | HCC-2998 colon | RXF 393 renal
> 100 µM: all other assays above
